Entries after “also recorded” stand apart in the source; their conditions may differ. Values belong to the compound of their own block, whether it stands above or below them.
Columns and labels:
BCRP [1] = conditions: read-out: Ki or IC50 values for BCRP; cited from earlier work
Caco-2 cells = conditions: 10 µM FTC; cited from earlier work
P-gp = conditions: 2 µM GF120918, SCRH; cited from earlier work
Bcrp [2] = molecular target: T1, Bcrp (Rattus norvegicus, UniProt Q80W57); assay: GF120918 inhibition of nitrofurantoin biliary excretion in SCRH
T1 sequence (Q80W57 1-657): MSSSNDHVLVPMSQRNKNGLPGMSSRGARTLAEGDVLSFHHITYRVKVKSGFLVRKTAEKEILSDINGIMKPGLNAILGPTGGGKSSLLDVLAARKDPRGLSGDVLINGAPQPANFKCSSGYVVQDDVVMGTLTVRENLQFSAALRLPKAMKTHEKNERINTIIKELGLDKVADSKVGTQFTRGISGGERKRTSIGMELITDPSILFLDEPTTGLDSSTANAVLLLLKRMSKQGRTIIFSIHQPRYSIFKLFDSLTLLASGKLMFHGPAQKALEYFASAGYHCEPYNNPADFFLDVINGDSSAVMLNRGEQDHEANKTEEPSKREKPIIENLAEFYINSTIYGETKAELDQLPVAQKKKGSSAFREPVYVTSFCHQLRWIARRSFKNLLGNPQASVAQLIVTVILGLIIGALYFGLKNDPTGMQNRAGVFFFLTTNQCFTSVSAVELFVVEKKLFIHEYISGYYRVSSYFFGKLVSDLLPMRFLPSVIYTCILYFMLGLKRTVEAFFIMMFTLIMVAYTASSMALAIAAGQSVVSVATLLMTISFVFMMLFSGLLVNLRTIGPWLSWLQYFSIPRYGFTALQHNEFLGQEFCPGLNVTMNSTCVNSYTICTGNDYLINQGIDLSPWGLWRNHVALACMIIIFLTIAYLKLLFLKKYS

Bcrp [3] = molecular target: T1, Bcrp; assay: Biliary excretion; format: in vitro ADME; conditions: 10 min; for Nitrofurantoin BEI, % of control (Ad-siNT) / Nitrofurantoin in vitro Clbiliary, % of control (Ad-siNT): 5 µM nitrofurantoin
[4] = tested on: sandwich-cultured rat hepatocytes (SCRH); conditions: 10-min incubation; digoxin 1 µM, nitrofurantoin 5 µM
Bcrp [5] = conditions: cited from earlier work
[6] = 2 µM GF120918, 5 µM nitrofurantoin, 10 min, day 4 SCRH
[7] = 2 µM GF120918, 5 µM nitrofurantoin, 10 min, day 4 SCRH, data not shown
[8] = day 4 Ad-si01Bcrp-infected SCRH
[9] = day 6 Ad-si01Bcrp-infected SCRH

Structure (SMILES): COc1ccc2c3c([nH]c2c1)[C@H](C=C(C)C)N1C(=O)[C@@H]2CCCN2C(=O)[C@@H]1C3 [FTC, fumitremorgin C]
IC50 (BCRP [1]): 300 to 1300 nM
Effect on digoxin transport in Caco-2 cells (Caco-2 cells): inhibited

Effect on cellular accumulation of nitrofurantoin (Bcrp [2]; [6]): significantly increased
Effect on nitrofurantoin accumulation in cells + BC (Bcrp [2]; [6]): did not affect
Nitrofurantoin BEI in presence of inhibitor, % of control (Bcrp [2]; [7]): ~ 8 % of control
Nitrofurantoin in vitro Clbiliary in presence of inhibitor, % of control (Bcrp [2]; [7]): ~ 8 % of control
Inhibition of nitrofurantoin biliary excretion (Bcrp [2]; 2 µM GF120918, SCRH): almost completely inhibited
Structure (SMILES): COc1cc2c(cc1OC)CN(CCc1ccc(NC(=O)c3cccc4c(=O)c5cccc(OC)c5[nH]c34)cc1)CC2 [GF120918, N-(4-[2-(1,2,3,4-tetrahydro-6,7-dimethoxy-2-isoquinolinyl)ethyl]-phenyl)-9,10-dihydro-5-methoxy-9-oxo-4-acridine carboxamide]
P-gp-mediated biliary excretion of digoxin, % of control (P-gp): ~ 25 % of control

Accumulation in cells + BC and cells, day 6 versus day 4 SCRH [4]: lower
Structure (SMILES): C[C@H]1O[C@@H](O[C@H]2[C@@H](O)C[C@H](O[C@H]3[C@@H](O)C[C@H](O[C@H]4CC[C@@]5(C)[C@H](CC[C@@H]6[C@@H]5C[C@@H](O)[C@]5(C)[C@@H](C7=CC(=O)OC7)CC[C@]65O)C4)O[C@@H]3C)O[C@@H]2C)C[C@H](O)[C@@H]1O [digoxin]
Effect of Bcrp knockdown on digoxin accumulation (cells + BC or cells), BEI or in vitro Clbiliary (Bcrp [3]; Ad-si01Bcrp-infected day 4 or day 6 SCRH, 1 µM digoxin): unaffected; also recorded: did not affect

Nitrofurantoin accumulation in cells + BC versus control (Ad-siNT) (Bcrp [3]; Ad-si01Bcrp-infected SCRH, 5 µM): similar
Nitrofurantoin BEI, % of control (Ad-siNT) (Bcrp [3]; [8]): ~ 24 % of control
Nitrofurantoin in vitro Clbiliary, % of control (Ad-siNT) (Bcrp [3]; [8]): ~ 27 % of control
Nitrofurantoin BEI, % of control (Ad-siNT) (Bcrp [3]; [9]): 11 % of control
Nitrofurantoin in vitro Clbiliary, % of control (Ad-siNT) (Bcrp [3]; [9]): 14 % of control
Structure (SMILES): O=C1CN(/N=C/c2ccc([N+](=O)[O-])o2)C(=O)N1 [nitrofurantoin]
Cellular accumulation of nitrofurantoin versus control (Ad-siNT) (Bcrp [3]; Ad-si01Bcrp-infected day 4 and day 6 SCRH, 5 µM): increased markedly; also recorded: significantly increased
Nitrofurantoin biliary excretion in Abcg2-knockout mice (Bcrp [5]): almost completely abolished
